According to BindingDB's records for doi:10.1021/jm00121a001 (University of Utah, 1989):

Test: Inhibition of compound against Guanine-7-methyl transferase

SMILES: Nc1nc(O)c2cc(CSC[C@H]3O[C@@H](n4cnc5c(N)ncnc54)[C@H](O)[C@@H]3O)[nH]c2n1
- Ki: 93 µM
